# Measured values from the supplement of paper PMC10307832.
# Tests used:
# Assay in all cases: relative viability (nuclei count vs DMSO), 5 days (fraction); higher = more cells survive
# kb NB 142-70 + Olaparib = compound: C1CSC2=C(C(=O)N1)SC3=C2C=C(C=C3)O [kb NB 142-70] + O=C(c1cc(Cc2n[nH]c(=O)c3ccccc23)ccc1F)N1CCN(C(=O)C2CC2)CC1 [Olaparib] (partner 8 µM)
# Procedure, shortened: (§1)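 Relative viability equals treated-well nuclei counts divided by vehicle-well nuclei counts. Counts came from 4× images of lung cancer cell lines grown in 1536-well plates for 5 days after pin-tool dosing on the day after seeding. Dosing used one drug alone or a fixed anchor-drug dose plus five library-drug doses (not always all listed) in √10 steps, and values are medians of duplicate plates.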
# [1] = compound: C1CSC2=C(C(=O)N1)SC3=C2C=C(C=C3)O [kb NB 142-70] + CC(C)C[C@H](NC(=O)[C@H](Cc1ccccc1)NC(=O)c1cnccn1)B(O)O [Bortezomib] (partner 0.002 µM)
# Procedure, shortened: as §1
# [2] = compound: NCC(=O)Nc1ccc(-n2nc(C(F)(F)F)cc2-c2ccc3c(ccc4ccccc43)c2)cc1 + NC(=O)Nc1cc(-c2cccc(F)c2)sc1C(=O)N[C@H]1CCCNC1 [AZD7762] (partner 0.2 µM)
# Procedure, shortened: as §1
# [3] = compound: C1CSC2=C(C(=O)N1)SC3=C2C=C(C=C3)O [kb NB 142-70] + CCNC(=O)c1noc(-c2cc(C(C)C)c(O)cc2O)c1-c1ccc(CN2CCOCC2)cc1 [Luminespib] (partner 0.01 µM)
# Procedure, shortened: as §1
# [4] = compound: NCC(=O)Nc1ccc(-n2nc(C(F)(F)F)cc2-c2ccc3c(ccc4ccccc43)c2)cc1 + CS(=O)(=O)N1CCN(Cc2cc3nc(-c4cccc5[nH]ncc45)nc(N4CCOCC4)c3s2)CC1 [Pictilisib] (partner 1 µM)
# Procedure, shortened: as §1
Cell Line,relative viability (kb NB 142-70 + Olaparib; first compound 0.1 µM),relative viability (kb NB 142-70 + Olaparib; first compound 1 µM),relative viability (kb NB 142-70 + Olaparib; first compound 3.162 µM),relative viability ([1]; first compound 0.1 µM),relative viability ([1]; first compound 1 µM),relative viability ([1]; first compound 3.162 µM),relative viability ([2]; first compound 0.02 µM),relative viability ([2]; first compound 0.06325 µM),relative viability ([2]; first compound 0.2 µM),relative viability ([2]; first compound 0.6325 µM),relative viability ([2]; first compound 2 µM),relative viability ([3]; first compound 0.1 µM),relative viability ([3]; first compound 1 µM),relative viability ([3]; first compound 3.162 µM),relative viability ([4]; first compound 0.02 µM),relative viability ([4]; first compound 0.06325 µM),relative viability ([4]; first compound 0.2 µM),relative viability ([4]; first compound 0.6325 µM),relative viability ([4]; first compound 2 µM)
NCI-H838,0.73,0.787,0.739,0.83,0.777,0.877,1.01,0.922,0.986,0.913,0.957,0.374,0.339,0.218,0.474,0.441,0.5,0.432,0.45
NCI-H1755,0.934,0.809,0.883,1.02,0.98,1,0.448,0.569,0.448,0.394,0.449,0.49,0.45,0.557,0.384,0.487,0.454,0.435,0.479
NCI-H322M,0.777,0.795,0.621,1.2,1.25,1.3,0.569,0.711,0.578,0.636,0.681,0.767,0.947,0.693,0.516,0.515,0.521,0.523,0.483
NCI-H3122,0.648,0.714,0.793,1.09,1.06,1.03,0.897,0.983,1,1.01,0.969,0.0874,0.075,0.0881,0.696,0.592,0.532,0.571,0.628
NCI-H2087,0.506,0.589,0.411,0.821,0.88,0.755,1.29,1.24,1.31,1.36,1.23,0.183,0.164,0.116,0.77,0.709,0.723,0.801,0.848
LC-2-ad,0.681,0.716,0.649,1.12,1.03,0.916,1.09,0.875,0.772,0.849,0.886,0.997,1.04,0.699,0.428,0.503,0.377,0.453,0.403
NCI-H1915,0.286,0.236,0.145,0.998,1,0.85,0.644,0.729,0.642,0.703,0.754,0.797,0.897,0.489,0.79,1.05,0.922,0.914,0.999
RERF-LC-KJ,1.03,1.01,0.675,1.18,1.29,0.946,0.959,0.863,0.996,1.12,1.03,1.33,1.27,0.936,0.568,0.62,0.663,0.66,0.517
LXF-289,1.04,1.05,0.772,1.02,0.942,0.895,1.14,1.13,1.01,1.12,1.06,0.78,0.621,0.49,0.868,0.583,0.762,0.753,0.798
PC-14,0.318,0.265,0.216,0.896,0.932,0.82,0.419,0.367,0.36,0.328,0.381,0.149,0.173,0.13,0.606,0.702,0.704,0.67,0.62
NCI-H650,0.417,0.374,0.267,0.845,0.719,0.561,0.988,1.12,1.08,1.02,1.05,0.76,0.777,0.499,0.843,0.913,1.05,0.782,0.948
NCI-H1666,0.73,0.78,0.823,0.903,0.713,0.36,0.75,0.844,0.919,0.868,0.91,0.898,0.985,0.81,0.554,0.424,0.437,0.505,0.404
NCI-H2085,0.742,0.727,0.487,1,1,0.709,0.943,1.03,1.04,1.06,1.04,0.383,0.358,0.339,0.483,0.443,0.436,0.42,0.469
NCI-H1734,0.586,0.509,0.304,0.889,0.867,0.49,0.52,0.556,0.565,0.515,0.611,0.185,0.205,0.171,0.451,0.462,0.464,0.43,0.474
NCI-H2126,0.928,0.899,0.816,1.11,1.14,1.12,0.969,1.12,1.02,1.01,1.01,0.797,0.878,0.879,0.47,0.51,0.45,0.532,0.502
EMC-BAC-2,0.531,0.505,0.384,1.08,1.07,0.812,1.09,1.1,1.1,1.13,1.16,1.25,1.17,0.972,0.509,0.558,0.558,0.545,0.506
